In US11643421B2, “Process for the preparation of tricyclic PI3K inhibitor compounds and methods for using the same for the treatment of cancer” (priority 2015, dated 2023):

Key:
[1] = Hepatocyte stability, predicted hepatic clearance; type: in vitro ADME; details: in vitro t1/2 method
Experimental: (§1) The hepatocyte stability of compound IIIat was evaluated across preclinical species. Certain in vivo pharmacokinetic parameters were also evaluated. […] Male Sprague-Dawley rats, female CD-1 mice, male cynomolgus monkeys and beagle dogs were dosed intravenously with 1 mg/kg of compound IIIat prepared in 60% PEG400/10% Ethanol. Compound IIIat was administered orally (PO) at the indicated dose in 0.5% methylcellulose with 0.2% Tween 80 (MCT).

[2] = Plasma protein binding (PPB %); type: in vitro ADME, cynomolgus monkeys; details: cynomolgus monkey
Experimental: as §1

[3] = Phase I dose-escalation study, maximum tolerable dose; details: orally once daily in cycles of 28 days
Experimental: Plasma samples for pharmacokinetic (“PK”) analysis were collected on day 1 and day 8 or day 15 of cycle 1. Fluorodeoxyglucose positron emission tomography (“FDG-PET”) was performed at baseline and on-treatment.

high-grade gliomas = experiment: Phase I study, FDG-PET tumor response; type: in vivo, human; details: 27 patients who underwent FDG-PET imaging
Experimental: Tumor response was determined by either an assessment of FDG-PET or by Response Assessment in Neuro-Oncology (RANO).
The outcome measure for this objective was based on the maximum standard uptake value (SUVmax) of up to five lesions. The tumor regions of interest (ROIs) were identified for each patient on pretreatment PET imaging and corresponded to a subset of the target lesions used for analysis of the patient's pretreatment tumor assessment scans. […] Specifically, the SUVmax of each ROI on the on-treatment scans was compared with its SUVmax on the corresponding pretreatment scan and the percent change was determined. In the event of more than one ROI, the overall percent change in SUVmax was the arithmetic mean of the percent changes in SUVmax for each of the ROIs (mSUVmax). PET response is defined as follows. Progressive disease (PET-PD): percent increase of >20% in mSUVmax or the development of a new lesion with an SUVmax above background and not explained by another cause (e.g., infection). Stable disease (PET-SD): percent increase of ≤20% in mSUVmax or a percent decrease of ≤20% in mSUVmax. Partial response (PET-PR): percent decrease of >20% in mSUVmax. […]
Reduction in ^18F-FDG uptake measured by PET is indicative of reduced glucose metabolism activity, a likely PD response of PI3K pathway inhibition.

[4] = Plasma protein binding by equilibrium dialysis; type: in vitro ADME; details: mouse, plasma (pooled), pH 7.4, n=3, mean±standard deviation, read-out: free fraction (%) in mouse plasma
Experimental: Plasma samples were equilibrated with phosphate-buffered saline (pH 7.4) at 37° C. in 90% humidity and 5% CO2 for 4 hours. […] Incubations were performed in triplicate. Parameters are presented as mean±standard deviation.

[5] = MALDI imaging of brain distribution, U87 orthotopic model; type: in vivo, female nude mice; details: 15 mg/kg PO, 1 hour post dose
Experimental: Mice were euthanized at 1 and 6 hours post-dose via exsanguination by perfusion under anesthesia. Brains were excised, flash frozen in liquid N2 and stored in a −80° C. freezer until analyzed. Fresh frozen tissue sections were obtained on a cryomicrotome (Leica CM3050S, Buffalo Grove, Ill.) at 12 μm thickness and thaw-mounted onto indium tin oxide coated glass slides (Bruker Daltonics, Billerica, Mass.). Tissue sections were an analyzed by imaging MALDI MS, providing signal intensities (and not absolute quantitation), followed by cresyl violet staining for histological interrogation.
For MALDI MAS analysis, a 40 mg/mL solution of 2,5-dihydroxybenzoic acid (Sigma-Aldrich, St. Louis, Mo.) was prepared in methanol:water (70:30 v/v). […] Matrix solution was homogenously spray-coated onto the tissue using a HTX TM-Sprayer (HTX technologies. Chapel Hill, N.C.). Matrix-coated tissue sections were transferred to the MALDI mass spectrometer (SolariX 7T FT-ICR, Bruker Daltonics, Bremen, Germany) for imaging analysis. […] Laser intensity and number of shots were optimized for sensitivity of the parent drug (1200 shots) with ion detection collected over the mass range of m/z 150-3000.
Following completion of the imaging experiments, matrix coaling was removed by rinsing the glass slide in 100% methanol for 30 seconds or until the entire matrix was visibly removed. […] Microscope images were obtained on an Olympus BX51 (Tokyo, Japan) at 10× magnification and stitched using MicroSuite Analytical v3.0 software (Olympus, Tokyo, Japan). Subsequently, stained images were co-registered to the optical images in FlexImaging for visualization and annotation of tumor and non-tumor regions for the drug images.
To assess drug distribution, imaging MALDI MS data from U87 and GS2 tumor models were co-registered to the cresyl violet stained microscope images in FlexImaging Regions of interest (ROIs) that were selected based on the anatomical features defined in the histological image including tumor and non-tumor regions. Drug intensity for each pixel within the defined ROI was extracted and exported. […] Histogram plots were created in GraphPad Prism 5 to visualize the distribution of pixel intensity frequencies.

U87 intracranial tumors = experiment: Efficacy in U87 intracranial model; type: in vivo, mice; details: 15 mg/kg PO daily for 2 weeks, micro-CT
From the text: These U87 and GS2 models are PTEN-deficient, with the GS2 cell line presenting a copy number loss at the PTEN locus (Gunther H S, et al.) with no detectable PTEN protein by western blot (Carlson […], Schroeder […]., “Establishment, maintenance and in vitro and in vivo applications of primary human glioblastoma multiforme (GBM) xenograft models for translational biology studies and drug discovery”, Curr Protoc Pharmacol. 2011; Chapter 14: Unit 14 16). The identity of the two cell lines was confirmed by STR profiling (DNA Diagnostics Center) using cells within 5 passages of those utilized for in vivo studies. […] The differences between treatment groups were evaluated using Student's t test in Prism (Prism 5, GraphPad). […] Body temperature was continuously monitored using a rectal probe and was maintained at 37° C. by a heated-air flow system regulated by in-house LabVIEW controller software. […] 12-20 axial 0.5-0.8 mm-thick slices were acquired with a 20×20 mm field of view (FOV), and 128×128 matrix, zero-filled to 256×256 mages. […] Brain sample preparation, micro-CT scanning, and image analysis for ex-vivo micro-CT imaging were performed as described previously (de […], Nishimura M C, Phillips H, Carano […] micro-CT imaging of the postmortem brain”, J. Neurosci. Methods. 2008; 171 (2): 207-213).

pS6 = experiment: PI3K pathway modulation in GS2 tumors, western blot; type: in vivo, mice; details: 15 mg/kg PO daily 4 weeks
Axl = Axl (Homo sapiens, UniProt P30530); experiment: biochemical; details: read-out: % inhib
CDK9/cyclinT1 = CDK9/cyclinT1 (Homo sapiens, UniProt P50750); experiment: biochemical; details: read-out: % inhib
Chain of CDK9/cyclinT1 (P50750 whole entry, species assumed): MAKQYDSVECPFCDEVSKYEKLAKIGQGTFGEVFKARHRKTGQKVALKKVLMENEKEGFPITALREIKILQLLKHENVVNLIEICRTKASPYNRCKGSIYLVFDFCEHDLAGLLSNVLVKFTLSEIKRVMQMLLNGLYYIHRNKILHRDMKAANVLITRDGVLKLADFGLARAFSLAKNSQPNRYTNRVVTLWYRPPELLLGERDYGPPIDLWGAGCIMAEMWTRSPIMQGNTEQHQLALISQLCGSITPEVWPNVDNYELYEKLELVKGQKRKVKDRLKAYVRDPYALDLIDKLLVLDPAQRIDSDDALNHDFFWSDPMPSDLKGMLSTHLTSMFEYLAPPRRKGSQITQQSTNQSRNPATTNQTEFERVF
Chain of CDK9/cyclinT1 (O60563 whole entry partner, species assumed): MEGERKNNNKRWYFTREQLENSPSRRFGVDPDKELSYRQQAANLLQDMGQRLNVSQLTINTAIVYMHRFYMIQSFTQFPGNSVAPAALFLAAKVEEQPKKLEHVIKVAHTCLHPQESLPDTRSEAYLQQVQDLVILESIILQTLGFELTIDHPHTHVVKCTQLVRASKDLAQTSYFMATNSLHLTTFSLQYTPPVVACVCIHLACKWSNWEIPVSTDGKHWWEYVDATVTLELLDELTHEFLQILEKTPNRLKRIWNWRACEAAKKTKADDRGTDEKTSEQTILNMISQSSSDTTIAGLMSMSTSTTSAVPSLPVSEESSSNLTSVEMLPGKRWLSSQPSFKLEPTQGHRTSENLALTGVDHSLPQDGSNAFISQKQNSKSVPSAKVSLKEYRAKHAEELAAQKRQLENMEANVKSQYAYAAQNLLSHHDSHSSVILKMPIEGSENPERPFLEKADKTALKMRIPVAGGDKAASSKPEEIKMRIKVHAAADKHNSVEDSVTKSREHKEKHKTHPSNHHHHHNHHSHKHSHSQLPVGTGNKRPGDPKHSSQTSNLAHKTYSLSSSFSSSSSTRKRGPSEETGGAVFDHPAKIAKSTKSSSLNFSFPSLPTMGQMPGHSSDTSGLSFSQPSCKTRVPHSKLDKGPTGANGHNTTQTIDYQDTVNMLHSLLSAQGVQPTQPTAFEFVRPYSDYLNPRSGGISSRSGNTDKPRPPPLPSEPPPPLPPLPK

CLK3 = CLK3 (Homo sapiens, UniProt P49761); experiment: biochemical; details: read-out: % inhib
Chain of CLK3 (P49761 whole entry, species assumed): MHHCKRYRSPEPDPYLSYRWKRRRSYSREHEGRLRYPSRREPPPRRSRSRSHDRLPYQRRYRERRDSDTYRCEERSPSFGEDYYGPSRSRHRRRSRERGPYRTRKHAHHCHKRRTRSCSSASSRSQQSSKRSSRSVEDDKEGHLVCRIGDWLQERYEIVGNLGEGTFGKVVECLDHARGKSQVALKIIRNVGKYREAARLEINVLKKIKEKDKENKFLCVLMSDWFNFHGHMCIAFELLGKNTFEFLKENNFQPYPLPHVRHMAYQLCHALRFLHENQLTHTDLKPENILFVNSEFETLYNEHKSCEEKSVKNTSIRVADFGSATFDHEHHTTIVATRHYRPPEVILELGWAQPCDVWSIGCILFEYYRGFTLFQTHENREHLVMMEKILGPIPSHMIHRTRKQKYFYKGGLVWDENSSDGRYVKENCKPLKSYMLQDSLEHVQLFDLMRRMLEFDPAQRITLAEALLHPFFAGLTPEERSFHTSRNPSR

CaMKII_beta = CaMKII_beta (Homo sapiens, UniProt Q13554); experiment: biochemical; details: read-out: % inhib
Chain of CaMKII_beta (Q13554 whole entry): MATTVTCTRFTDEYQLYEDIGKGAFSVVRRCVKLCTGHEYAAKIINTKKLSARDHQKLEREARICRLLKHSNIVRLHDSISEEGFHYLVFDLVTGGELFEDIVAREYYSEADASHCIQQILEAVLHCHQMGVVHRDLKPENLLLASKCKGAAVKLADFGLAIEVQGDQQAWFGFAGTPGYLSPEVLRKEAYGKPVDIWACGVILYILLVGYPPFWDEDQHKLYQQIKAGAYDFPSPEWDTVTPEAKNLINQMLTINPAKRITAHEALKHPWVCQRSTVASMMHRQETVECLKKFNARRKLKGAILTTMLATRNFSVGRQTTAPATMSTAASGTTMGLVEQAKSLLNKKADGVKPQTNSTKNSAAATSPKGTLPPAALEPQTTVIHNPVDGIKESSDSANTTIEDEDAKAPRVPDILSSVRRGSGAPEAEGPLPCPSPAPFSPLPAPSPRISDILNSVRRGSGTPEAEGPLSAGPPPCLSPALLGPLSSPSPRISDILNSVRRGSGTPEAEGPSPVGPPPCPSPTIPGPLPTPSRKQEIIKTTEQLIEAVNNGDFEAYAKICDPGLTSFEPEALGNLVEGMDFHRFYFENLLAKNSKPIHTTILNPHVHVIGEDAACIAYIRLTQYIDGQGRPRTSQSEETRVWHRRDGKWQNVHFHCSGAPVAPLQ

MEK1 = MEK1 (Homo sapiens, UniProt Q02750); experiment: biochemical; details: read-out: % inhib
Chain of MEK1 (Q02750 whole entry): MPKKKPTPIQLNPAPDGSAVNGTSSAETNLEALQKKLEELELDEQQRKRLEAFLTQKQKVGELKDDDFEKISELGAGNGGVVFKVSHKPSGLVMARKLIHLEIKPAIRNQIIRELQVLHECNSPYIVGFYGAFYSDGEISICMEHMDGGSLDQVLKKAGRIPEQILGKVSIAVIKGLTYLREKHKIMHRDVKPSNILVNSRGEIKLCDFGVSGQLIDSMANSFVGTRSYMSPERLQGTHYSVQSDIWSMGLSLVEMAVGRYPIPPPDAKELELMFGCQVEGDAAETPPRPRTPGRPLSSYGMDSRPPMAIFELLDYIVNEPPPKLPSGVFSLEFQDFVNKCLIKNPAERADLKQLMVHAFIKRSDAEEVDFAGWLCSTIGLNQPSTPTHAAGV

NEK2 = NEK2 (Homo sapiens, UniProt P51955); experiment: biochemical; details: read-out: % inhib
Chain of NEK2 (P51955 whole entry): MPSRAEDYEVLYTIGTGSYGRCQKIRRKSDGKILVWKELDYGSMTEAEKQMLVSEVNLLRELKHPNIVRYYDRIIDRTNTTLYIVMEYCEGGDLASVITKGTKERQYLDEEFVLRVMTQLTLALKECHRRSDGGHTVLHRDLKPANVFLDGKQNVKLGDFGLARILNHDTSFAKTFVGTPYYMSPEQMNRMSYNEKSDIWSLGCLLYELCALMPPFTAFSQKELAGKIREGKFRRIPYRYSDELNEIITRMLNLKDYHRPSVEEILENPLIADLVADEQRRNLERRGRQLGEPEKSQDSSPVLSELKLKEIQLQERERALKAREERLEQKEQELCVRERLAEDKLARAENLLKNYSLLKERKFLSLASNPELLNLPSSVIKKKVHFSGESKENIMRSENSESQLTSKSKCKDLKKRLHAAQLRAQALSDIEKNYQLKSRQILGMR

NEK7 = NEK7 (Homo sapiens, UniProt Q8TDX7); experiment: biochemical; details: read-out: % inhib
Chain of NEK7 (Q8TDX7 whole entry): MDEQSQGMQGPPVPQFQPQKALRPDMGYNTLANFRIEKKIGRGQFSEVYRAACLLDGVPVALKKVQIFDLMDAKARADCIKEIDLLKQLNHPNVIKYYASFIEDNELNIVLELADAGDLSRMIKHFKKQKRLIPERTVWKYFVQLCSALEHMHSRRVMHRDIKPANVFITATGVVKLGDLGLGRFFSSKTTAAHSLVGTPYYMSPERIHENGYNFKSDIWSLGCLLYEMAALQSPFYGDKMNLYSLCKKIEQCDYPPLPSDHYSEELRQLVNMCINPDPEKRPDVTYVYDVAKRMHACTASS

PAK1 = PAK1 (Homo sapiens, UniProt Q13153); experiment: biochemical; details: read-out: % inhib
Chain of PAK1 (Q13153 whole entry): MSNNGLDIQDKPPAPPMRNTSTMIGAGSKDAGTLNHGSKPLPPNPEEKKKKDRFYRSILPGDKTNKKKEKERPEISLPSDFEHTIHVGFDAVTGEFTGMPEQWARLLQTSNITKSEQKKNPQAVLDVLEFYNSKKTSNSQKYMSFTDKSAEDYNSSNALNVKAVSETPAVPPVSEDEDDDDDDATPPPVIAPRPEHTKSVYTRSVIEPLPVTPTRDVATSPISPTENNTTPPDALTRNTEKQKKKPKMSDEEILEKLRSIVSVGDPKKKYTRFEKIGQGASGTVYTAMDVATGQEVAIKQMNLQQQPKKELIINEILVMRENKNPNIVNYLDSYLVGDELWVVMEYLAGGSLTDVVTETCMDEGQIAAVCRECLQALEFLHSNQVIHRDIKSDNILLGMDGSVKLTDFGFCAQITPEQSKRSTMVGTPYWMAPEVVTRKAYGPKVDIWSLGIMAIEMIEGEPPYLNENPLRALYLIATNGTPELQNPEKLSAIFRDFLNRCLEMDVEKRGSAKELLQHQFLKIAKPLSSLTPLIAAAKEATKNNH

PAK2 = PAK2 (Homo sapiens, UniProt Q13177); experiment: biochemical; details: read-out: % inhib
Chain of PAK2 (Q13177 whole entry): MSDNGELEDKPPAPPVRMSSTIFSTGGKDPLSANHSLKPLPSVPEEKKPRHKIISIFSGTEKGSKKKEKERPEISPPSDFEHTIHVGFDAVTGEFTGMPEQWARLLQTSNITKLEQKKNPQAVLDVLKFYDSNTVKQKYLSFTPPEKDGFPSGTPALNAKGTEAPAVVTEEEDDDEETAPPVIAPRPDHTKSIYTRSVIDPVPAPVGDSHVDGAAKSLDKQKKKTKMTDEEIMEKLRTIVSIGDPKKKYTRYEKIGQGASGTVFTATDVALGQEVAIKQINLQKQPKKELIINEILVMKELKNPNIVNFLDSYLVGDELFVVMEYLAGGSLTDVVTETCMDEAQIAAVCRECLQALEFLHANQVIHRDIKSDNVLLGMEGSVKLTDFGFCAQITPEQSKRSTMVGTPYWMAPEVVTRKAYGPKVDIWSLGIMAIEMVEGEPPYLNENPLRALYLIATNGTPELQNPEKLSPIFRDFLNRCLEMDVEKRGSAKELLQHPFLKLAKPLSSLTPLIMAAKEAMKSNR

CC1(C)OCCn2c1nc1c(N3CCOCC3)nc(-c3cnc(N)nc3)nc12 [GDC-0084, 5-(6,6-dimethyl-4-morpholino-8,9-dihydro-6H-[1,4]oxazino[3,4-e]purin-2-yl)pyrimidin-2-amine]
Clhep ([1]; Dog hepatocytes): 13 mL/min/kg
Clhep ([1]; Mouse hepatocytes): 30 mL/min/kg
Clhep ([1]; Rat hepatocytes): 3 mL/min/kg
fraction unbound [2]: 0.25
MTD [3]: 45 mg
patients with metabolic partial response on FDG-PET (high-grade gliomas): five
patients with metabolic partial response on FDG-PET, percent (high-grade gliomas): 18.5%
fraction unbound at 4 h, 5 µM [4]: 0.295 ± 0.027
distribution in brain and intracranial tumors (MALDI images) ([5]; U87 and GS2 models): distributed readily and quite evenly throughout the brain
mean pixel intensity (MALDI imaging) ([5]; U87 tumors): 0.54
mean pixel intensity (MALDI imaging) ([5]; healthy brain of U87 tumor-bearing mice): 0.54
U87 tumor volume reduction versus vehicle control (U87 intracranial tumors): approximately 70%
Suppression of pS6 in GS2 tumors (pS6; 2 hours after final administration): 35%
pS6 level in GS2 tumors (pS6; 8 hours post-dose): back to baseline levels
inhibition at 1 µM (Axl): 6%
inhibition at 1 µM (CDK9/cyclinT1): -0.9%
inhibition at 1 µM (CLK3): 7%
inhibition at 1 µM (CaMKII_beta): 0.2%
inhibition at 1 µM (MEK1): -0.1%
inhibition at 1 µM (NEK2): 20%
inhibition at 1 µM (NEK7): -0.3%
inhibition at 1 µM (PAK1): 7%
inhibition at 1 µM (PAK2): 3%
